ChEMBL document CHEMBL3098038, “Verrulactone C with an unprecedented dispiro skeleton, a new inhibitor of Staphylococcus aureus enoyl-ACP reductase, from Penicillium verruculosum F375” (Bioorg Med Chem Lett, 2014)
Converted amounts (≈) assume the structure as drawn. The source made the active and inactive calls. No cut-off for these calls is given here.

Columns and labels:
Staphylococcus aureus [1] = test: Antibacterial activity against methicillin-resistant Staphylococcus aureus CCARM 3167; assay type: functional
Staphylococcus aureus [2] = test: Inhibition of Staphylococcus aureus FabG using acetoacetyl-CoA as substrate assessed as NADPH level at 300 uM by ELISA
Staphylococcus aureus [3] = test: (§1) Inhibition of Staphylococcus aureus FabI-mediated trans-2-octenoyl N-acetylcysteamine reduction assessed as NADPH level by ELISA
[4] = as §1
Staphylococcus aureus [5] = test: Antibacterial activity against quinolone-resistant Staphylococcus aureus CCARM 3505; assay type: functional
Staphylococcus aureus [6] = test: Antibacterial activity against Staphylococcus aureus RN4220; assay type: functional
Bacillus cereus = test: Antibacterial activity against Bacillus cereus KCTC 1661; assay type: functional

SMILES	MIC (Staphylococcus aureus [1]) [µg/mL]	inhibition (Staphylococcus aureus [2])	inhibition (Staphylococcus aureus [3])	IC50 [4] [µM]	MIC (Staphylococcus aureus [5]) [µg/mL]	MIC (Staphylococcus aureus [6]) [µg/mL]	MIC (Bacillus cereus) [µg/mL]
COc1cc(O)c2c(=O)oc3cc(O)c(O)cc3c2c1	8 (≈ 29.2 µM)	inactive	Dose-dependent effect	85.4	8 (≈ 29.2 µM)	8 (≈ 29.2 µM)	8 (≈ 29.2 µM)
COc1cc(O)c2c(c1)[C@@]1(OC2=O)C(C)=CC(=O)[C@]12C(=O)c1c(O)c(O)cc3oc(=O)c4c(O)cc(OC)c2c4c13 (relative stereo)	32 (≈ 57.3 µM)	inactive	Dose-dependent effect	16.1	32 (≈ 57.3 µM)	32 (≈ 57.3 µM)	32 (≈ 57.3 µM)
Oc1cc(Cl)ccc1Oc1ccc(Cl)cc1Cl [TRICLOSAN]	0.01 (≈ 0.0345 µM)	–	–	–	0.01 (≈ 0.0345 µM)	0.01 (≈ 0.0345 µM)	0.01 (≈ 0.0345 µM)
COc1cc(O)c2c(=O)oc3cc(O)c(O)c(-c4c(O)c(O)cc5oc(=O)c6c(O)cc(OC)cc6c45)c3c2c1 [VERRULACTONE A]	8 (≈ 14.6 µM)	–	–	0.92	8 (≈ 14.6 µM)	8 (≈ 14.6 µM)	8 (≈ 14.6 µM)
COc1cc(O)c2c(=O)oc3c(-c4c(O)c(O)cc5oc(=O)c6c(O)cc(OC)cc6c45)c(O)c(O)cc3c2c1 [VERRULACTONE B]	8 (≈ 14.6 µM)	–	–	1.41	8 (≈ 14.6 µM)	8 (≈ 14.6 µM)	8 (≈ 14.6 µM)
